Here are results for 1 compound from ChEMBL document CHEMBL6109039, “Designed and synthesized novel tripeptides targeting diabetes and its related pathologies” (Eur J Med Chem, 2025).

Assay type in all cases: functional
The test system of assay [1] is Mus musculus. Kind of assay: Antidiabetic activity in Nicotinamide/Streptozotocin induced male Balb/c mouse model assessed as reduction in total cholesterol level in blood at 10 mg/kg, po treated for 21 days (reference value: 121 +/- 6.05 mg/dL). Conditions: time 21 day.
Assay [2] has as its system Mus musculus. Kind of assay: Antidiabetic activity in Nicotinamide/Streptozotocin induced male Balb/c mouse model assessed as reduction in HbA1c levels at 10 mg/kg, po treated for 21 days by Turbidimetric inhibition immunoassay. Conditions: time 21 day. On the set-up: scale not given: the % may be the effect or the level left.
The subject of assay [3] is Mus musculus. Kind of assay: Antidiabetic activity in Nicotinamide/Streptozotocin induced male Balb/c mouse model assessed as reduction in fasting blood glucose levels at 10 mg/kg, po measured after 21 days by glucometer analysis (reference value: 180.5 +/- 9.02 mg/dl). The note with it: time 21 day.
The test system of assay [4] is Mus musculus. Kind of assay: Antidiabetic activity in Nicotinamide/Streptozotocin induced male Balb/c mouse model assessed as reduction in Triglycerides level in blood at 10 mg/kg, po treated for 21 days (reference value: 61 +/- 3.05 mg/dL). The note with it: time 21 day.
Assay [5] has as its system Mus musculus. Kind of assay: Antidiabetic activity in Nicotinamide/Streptozotocin induced male Balb/c mouse model assessed as Non-HDL-Cholesterol level in blood at 10 mg/kg, po treated for 21 days (reference value: 75 mg/dL). Conditions: time 21 day.
The test system of assay [6] is Mus musculus. Kind of assay: Antidiabetic activity in Nicotinamide/Streptozotocin induced male Balb/c mouse model assessed as change in body weight at 10 mg/kg, po measured immediately (reference value: 25.08 +/- 1.25 g).
In assay [7] the test system is Mus musculus. Put plainly: Antidiabetic activity in Nicotinamide/Streptozotocin induced male Balb/c mouse model assessed as TC/HDL-Cholesterol ratio in blood at 10 mg/kg, po treated for 21 days (reference value: 4.03). Conditions: time 21 day.
Assay [8] concerns Mus musculus. Kind of assay: Antidiabetic activity in Nicotinamide/Streptozotocin induced male Balb/c mouse model assessed as reduction in alanine aminotransferase level in blood at 10 mg/kg, po treated for 21 days (reference value: 111 +/- 5.05 U/L). Conditions: time 21 day.
Assay [9] deals with Mus musculus. Put plainly: Antidiabetic activity in Nicotinamide/Streptozotocin induced male Balb/c mouse model assessed as change in body weight at 10 mg/kg, po treated for 21 days (reference value: 16.62 +/- 0.83 g). The note with it: time 21 day.
For assay [10], the system named is Mus musculus. Put plainly: Antidiabetic activity in Nicotinamide/Streptozotocin induced male Balb/c mouse model assessed as reduction in fasting blood glucose levels at 10 mg/kg, po measured after 14 days by glucometer analysis (reference value: 168.5 +/- 8.42 mg/dl). The note with it: time 14 day.
Assay [11] deals with Mus musculus. Put plainly: Antidiabetic activity in Nicotinamide/Streptozotocin induced male Balb/c mouse model assessed as relative liver weight at 10 mg/kg, po treated for 21 days (reference value: 0.77 +/- 0.04 mg/g). Conditions: time 21 day.
Assay [12] concerns Mus musculus. Put plainly: Antidiabetic activity in Nicotinamide/Streptozotocin induced male Balb/c mouse model assessed as reduction in HDL-Cholesterol level in blood at 10 mg/kg, po treated for 21 days (reference value: 30 +/- 1.80 mg/dL). The note with it: time 21 day.
The subject of assay [13] is Mus musculus. Kind of assay: Antidiabetic activity in Nicotinamide/Streptozotocin induced male Balb/c mouse model assessed as change in body weight at 10 mg/kg, po treated for 21 days relative to control. Conditions: time 21 day.
The subject of assay [14] is Mus musculus. Kind of assay: Antidiabetic activity in Nicotinamide/Streptozotocin induced male Balb/c mouse model assessed as reduction in aspartate transaminase level in blood at 10 mg/kg, po treated for 21 days (reference value: 171 +/- 8.55 U/L). Conditions: time 21 day.
Assay [15] concerns Mus musculus. Kind of assay: Antidiabetic activity in Nicotinamide/Streptozotocin induced male Balb/c mouse model assessed as reduction in LDL-Cholesterol level in blood at 10 mg/kg, po treated for 21 days (reference value: 46 +/- 2.30 mg/dL). The note with it: time 21 day.
The test system of assay [16] is Mus musculus. Kind of assay: Antidiabetic activity in Nicotinamide/Streptozotocin induced male Balb/c mouse model assessed as reduction in fasting blood glucose levels at 10 mg/kg, po measured immediately by glucometer analysis (reference value: 127.50 +/- 6.87 mg/dl).
Assay [17] relates to Mus musculus. Kind of assay: Antidiabetic activity in Nicotinamide/Streptozotocin induced male Balb/c mouse model assessed as LDL-Cholesterol/HDL Cholesterol ratio in blood at 10 mg/kg, po treated for 21 days (reference value: 1.53). The note with it: time 21 day.
The test system of assay [18] is Mus musculus. Put plainly: Antidiabetic activity in Nicotinamide/Streptozotocin induced male Balb/c mouse model assessed as reduction in fasting blood glucose levels at 10 mg/kg, po measured after 7 days by glucometer analysis (reference value: 160.5 +/- 8.02 mg/dl). Conditions: time 7 day.
Assay [19] has as its system Mus musculus. Put plainly: Antidiabetic activity in Nicotinamide/Streptozotocin induced male Balb/c mouse model assessed as reduction in VLDL-Cholesterol level in blood at 10 mg/kg, po treated for 21 days (reference value: 14 +/- 0.6 mg/dL). Conditions: time 21 day.

Turning to `CCC1=C(C)CN(C(=O)NCCc2ccc(S(=O)(=O)NC(=O)N[C@H]3CC[C@H](C)CC3)cc2)C1=O` [GLIMEPIRIDE], the Activity with Mus musculus [1] came to 108 mg/dL; in the assay on Mus musculus [2], 7.1%; with Mus musculus [3], 111.5 mg/dL; in the assay on Mus musculus [4], 56 mg/dL; in the assay with Mus musculus [5] it was 82 mg/dL; with Mus musculus [6], 12.94 g. Also, the Activity with Mus musculus [8] amounted to 97 U/L; in the assay with Mus musculus [9], 22.58 g; with Mus musculus [10] it was 108.5 mg/dL; in the assay with Mus musculus [11], 1.23 mg/g; with Mus musculus [12], 37 mg/dL; with Mus musculus [13] it was 42.69%. Besides, the Activity is 153 U/L with Mus musculus [14]; 26 mg/dL with Mus musculus [15]; 109 mg/dL in the assay with Mus musculus [16]; 143.5 mg/dL with Mus musculus [18]; 12 mg/dL in the assay with Mus musculus [19]. Moreover, the results for the Ratio in the assay with Mus musculus [7] and in the assay with Mus musculus [17] were 2.91 and 0.702, respectively.
